Measured values taken from patent US20220274991A1, “SMALL MOLECULE INHIBITORS OF KU70/80 AND USES THEREOF” (Arizona Board of Regents on Behalf of the University of …, priority 2019, published 2022).

biological target: T1, Ku70/80 (Homo sapiens, UniProt P12956+P13010); experiment: EMSA IC50 (AMRI Ku70/80); assay type: binding; conditions: Hill equation fitted
T1 construct: purchased AMRI
T1 sequence (P12956 whole entry): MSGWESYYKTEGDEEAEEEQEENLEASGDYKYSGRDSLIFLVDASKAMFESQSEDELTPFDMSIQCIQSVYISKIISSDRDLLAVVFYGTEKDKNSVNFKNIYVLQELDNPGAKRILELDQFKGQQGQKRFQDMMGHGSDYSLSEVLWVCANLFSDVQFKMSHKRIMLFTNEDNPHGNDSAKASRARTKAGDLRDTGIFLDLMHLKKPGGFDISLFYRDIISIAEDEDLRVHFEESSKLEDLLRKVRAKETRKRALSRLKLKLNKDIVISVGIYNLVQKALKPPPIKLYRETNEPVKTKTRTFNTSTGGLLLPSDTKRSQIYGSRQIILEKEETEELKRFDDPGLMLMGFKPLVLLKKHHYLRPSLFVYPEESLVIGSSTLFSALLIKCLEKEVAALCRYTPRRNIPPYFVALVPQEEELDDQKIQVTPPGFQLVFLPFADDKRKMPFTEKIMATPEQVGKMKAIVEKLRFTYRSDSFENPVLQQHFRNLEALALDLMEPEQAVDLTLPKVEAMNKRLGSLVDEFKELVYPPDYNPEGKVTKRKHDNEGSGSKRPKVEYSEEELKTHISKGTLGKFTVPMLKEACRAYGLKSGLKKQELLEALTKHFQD
T1 sequence (P13010 whole entry): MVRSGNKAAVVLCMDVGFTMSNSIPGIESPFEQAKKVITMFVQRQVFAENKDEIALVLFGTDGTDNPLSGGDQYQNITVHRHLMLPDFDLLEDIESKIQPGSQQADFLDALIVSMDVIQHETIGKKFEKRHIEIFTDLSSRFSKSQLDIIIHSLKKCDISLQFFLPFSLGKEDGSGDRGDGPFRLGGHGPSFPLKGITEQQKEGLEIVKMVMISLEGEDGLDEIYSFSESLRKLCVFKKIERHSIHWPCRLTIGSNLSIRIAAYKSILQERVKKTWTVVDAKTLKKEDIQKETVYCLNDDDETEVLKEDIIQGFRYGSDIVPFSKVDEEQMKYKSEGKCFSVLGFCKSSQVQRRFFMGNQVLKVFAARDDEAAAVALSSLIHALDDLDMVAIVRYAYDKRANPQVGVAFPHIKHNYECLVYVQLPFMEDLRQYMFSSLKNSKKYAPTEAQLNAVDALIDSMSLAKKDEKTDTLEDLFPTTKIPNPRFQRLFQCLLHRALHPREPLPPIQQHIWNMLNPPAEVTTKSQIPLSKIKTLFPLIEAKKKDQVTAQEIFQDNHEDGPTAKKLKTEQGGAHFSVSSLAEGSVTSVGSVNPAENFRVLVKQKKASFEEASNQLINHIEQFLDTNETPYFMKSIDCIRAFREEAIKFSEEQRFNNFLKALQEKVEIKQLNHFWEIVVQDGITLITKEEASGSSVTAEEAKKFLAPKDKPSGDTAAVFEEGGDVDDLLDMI

SMILES	IC50 [µM]
NS(=O)(=O)c1ccc(CCNc2ncc3c(=O)n(-c4cccc(F)c4)c(=O)[nH]c3n2)cc1	50
O=c1[nH]c2nc(NCCc3cccc(F)c3)ncc2c(=O)n1-c1cccnc1	245
O=c1[nH]c2nc(NCCc3cccnc3)ncc2c(=O)n1-c1cccc(F)c1	40
O=c1[nH]c2nc(NCCc3cccc(F)c3)ncc2c(=O)n1-c1ccccn1	58
O=c1[nH]c2nc(NCCc3ccncc3)ncc2c(=O)n1-c1cccc(F)c1	18
O=c1[nH]c2nc(NCCc3ccccn3)ncc2c(=O)n1-c1cccc(F)c1	18
O=c1[nH]c2nc(NCCc3ccc4c(c3)OCO4)ncc2c(=O)n1-c1cccc(F)c1	9.1
O=c1[nH]c2nc(NCCc3ccc4c(c3)OCCO4)ncc2c(=O)n1-c1cccc(F)c1	20
O=c1[nH]c2nc(NCCc3ccccc3)ncc2c(=O)n1-c1cccc(F)c1	28
COc1ccc(CCN(C)c2ncc3c(=O)n(-c4cccc(F)c4)c(=O)[nH]c3n2)cc1OC	184
COc1ccc(CCNc2ncc3c(=O)n(-c4cccc(F)c4)c(=O)[nH]c3n2)cc1F	54
O=c1[nH]c2nc(NCCc3ccc(O)c(F)c3)ncc2c(=O)n1-c1cccc(F)c1	101
O=c1[nH]c2nc(NCCc3ccc(F)c(F)c3)ncc2c(=O)n1-c1cccc(F)c1	33
O=c1[nH]c2nc(NCC3CCCc4c(F)cccc43)ncc2c(=O)n1-c1cccc(F)c1 (stereo not drawn)	20
O=c1[nH]c2nc(NCCc3cccc(F)c3)ncc2c(=O)n1-c1cc(F)ccc1F	249
COc1c(F)cccc1-n1c(=O)[nH]c2nc(NCCc3cccc(F)c3)ncc2c1=O	27
COc1ccc(-n2c(=O)[nH]c3nc(NCCc4cccc(F)c4)ncc3c2=O)cc1OC	22
O=c1[nH]c2nc(NCCc3cccc(F)c3)ncc2c(=O)n1Cc1ccccc1F	10
O=c1[nH]c2nc(NCCc3cccc(F)c3)ncc2c(=O)n1-c1nccs1	43
O=c1[nH]c2nc(NCCc3cccc(F)c3)ncc2c(=O)n1CC1CCNCC1	45
CC(C)Cn1c(=O)[nH]c2nc(NCCc3cccc(F)c3)ncc2c1=O	5.3
O=c1[nH]c2nc(NCCc3cccc(F)c3)ncc2c(=O)n1CCO	8.8
O=c1[nH]c2nc(NCCc3cccc(F)c3)ncc2c(=O)n1-c1ccc(N2CCOCC2)c(F)c1	6.9

Further compounds by falling IC50, results first:

IC50 [µM]	SMILES
196	O=C(O)c1ccc(CNc2ncc3c(=O)n(-c4cccc(F)c4)c(=O)[nH]c3n2)cc1
142	CN(CCc1cccc(F)c1)c1ncc2c(=O)n(-c3cccc(F)c3)c(=O)[nH]c2n1
34	O=c1[nH]c2nc(N3CCc4cc(F)ccc4C3)ncc2c(=O)n1-c1cccc(F)c1
21	O=c1[nH]c2nc(NCc3cccc4c(F)cccc34)ncc2c(=O)n1-c1cccc(F)c1
20	O=c1[nH]c2nc(NCCc3ccc4c(c3)OC(F)(F)O4)ncc2c(=O)n1-c1cccc(F)c1
20	CSc1ncc2c(=O)n(-c3ccc(Br)cc3)c(=O)[nH]c2n1
11	COc1ccc(-n2c(=O)[nH]c3nc(NCCc4cccc(F)c4)ncc3c2=O)cc1F
11	CCOC(=O)c1cccc(-n2c(=O)[nH]c3nc(NCCc4cccc(F)c4)ncc3c2=O)c1
7.6	O=c1[nH]c2nc(NCCc3cccc(F)c3)ncc2c(=O)n1-c1ccc(Br)cc1
6.9	NS(=O)(=O)c1ccc(-n2c(=O)[nH]c3nc(NCCc4cccc(F)c4)ncc3c2=O)cc1
